Measured values taken from ChEMBL document CHEMBL1125030, “Boc-Trp-Orn(Z)-Asp-NH2 and derivatives: a new family of CCK antagonists” (J Med Chem, 1990).
The source made the active and inactive calls. No cut-off for these calls is given here. Where a SMILES comes first, the peptide text is derived from it. [ ]: non-standard residue; d: D form. The star is where a group is joined. Phe(4-SO3H) = N[C@@H](Cc1ccc(S(=O)(=O)O)cc1)C(=O)O; sY = N[C@@H](Cc1ccc(OS(=O)(=O)O)cc1)C(=O)O; Nle = CCCC[C@H](N)C(=O)O; Orn = NCCC[C@H](N)C(=O)O; Cbz = O=C(OCc1ccccc1)*; Boc = CC(C)(C)OC(=O)*

Tests used:
[1] = Agonist activity expressed as effective concentration that causes 50% stimulation of amylase release from guinea pig pancreatic acini.; ND means no significant activity at 10e-4 M
[2] = organism: Cavia porcellus; assay: Antagonist activity expressed as binding constant, evaluated from the potency to stimulate Amylase release from guinea pig pancreatic acini;Not significant
[3] = Antagonist activity expressed as pA2, evaluated from the potency to stimulate amylase release from guinea pig pancreatic acini; format: functional, Cavia porcellus
[4] = target: T1, Cholecystokinin receptor type A (Cavia porcellus, UniProt Q63931); assay: Apparent affinity to inhibit binding of [3H]pCCK-8 to Cholecystokinin type A receptor of guinea pig pancreatic membranes
T1 sequence (Q63931 whole entry): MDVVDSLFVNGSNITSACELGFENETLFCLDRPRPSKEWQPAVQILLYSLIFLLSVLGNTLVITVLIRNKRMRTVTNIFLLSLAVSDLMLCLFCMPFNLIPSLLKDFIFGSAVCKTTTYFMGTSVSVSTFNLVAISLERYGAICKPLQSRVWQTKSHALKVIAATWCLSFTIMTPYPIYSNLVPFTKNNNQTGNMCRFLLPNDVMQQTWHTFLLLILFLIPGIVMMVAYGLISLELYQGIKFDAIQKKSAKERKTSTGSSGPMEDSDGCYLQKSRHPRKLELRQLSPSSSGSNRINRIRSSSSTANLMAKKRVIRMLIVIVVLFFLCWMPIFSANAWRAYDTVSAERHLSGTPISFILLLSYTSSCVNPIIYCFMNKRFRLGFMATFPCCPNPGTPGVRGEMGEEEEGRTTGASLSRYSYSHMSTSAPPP

[5] = (§1) Antagonist activity expressed as binding constant, evaluated from the potency to stimulate Amylase release from guinea pig pancreatic acini; set-up: species or system Cavia porcellus
[6] = organism: Cavia porcellus; assay: as §1
[7] = Agonist activity expressed as effective concentration that causes 50% stimulation of amylase release from guinea pig pancreatic acini;Not significant; format: functional, Cavia porcellus
[8] = Antagonist activity expressed as binding constant, evaluated from the potency to stimulate Amylase release from guinea pig pancreatic acini;Not significant at 10e-4 M; details: Cavia porcellus
[9] = Agonist activity expressed as effective concentration that causes 50% stimulation of amylase release from guinea pig pancreatic acini.; ND means no significant activity at 10e-4 M; format: functional, Cavia porcellus
[10] = Antagonist activity expressed as pA2, evaluated from the potency to stimulate Amylase release from guinea pig pancreatic acini; format: functional, Cavia porcellus
[11] = Agonist activity expressed as effective concentration that causes 50% stimulation of Amylase release from guinea pig pancreatic acini.; ND means no significant activity at 10e-4 M; format: functional, Cavia porcellus
[12] = Agonist activity expressed as effective concentration that causes 50% stimulation of amylase release from guinea pig pancreatic acini; format: functional, Cavia porcellus

| SMILES | EC50 [1] | pA2 [3] | Ki [4] [µM] | Kb [6] [µM] | further results |
| --- | --- | --- | --- | --- | --- |
| CC(C)(C)OC(=O)NCCC[C@H](NC(=O)[C@H](Cc1c[nH]c2ccccc12)NC(=O)OC(C)(C)C)C(=O)N[C@@H](CC(=O)O)C(N)=O (Boc-Trp-[Orn](Boc)-Asp-NH2) | Not Active | 4.62 | 29 |  | Kb [2]: 0.23 µM |
| CC(C)(C)OC(=O)N[C@@H](Cc1c[nH]c2ccccc12)C(=O)N[C@@H](CCCNC(=O)OCc1ccccc1)C(=O)N[C@@H](CC(=O)O)C(N)=O (Boc-Trp-[Orn](Cbz)-Asp-NH2) | Not Active | 6.63 | 0.2 |  | Kb [2]: 0.23 µM |
| CC(C)(C)OC(=O)N[C@@H](Cc1c[nH]c2ccccc12)C(=O)N[C@@H](CCCN)C(=O)N[C@@H](CC(=O)O)C(N)=O (Boc-Trp-[Orn]-Asp-NH2) |  |  | 1000 |  |  |
| CC(C)(C)OC(=O)NCCC[C@H](NC(=O)[C@H](Cc1c[nH]c2ccccc12)NC(=O)OC(C)(C)C)C(=O)N[C@@H](CC(=O)O)C(=O)N[C@@H](Cc1ccccc1)C(N)=O (Boc-W[Orn](Boc)DF-NH2) |  | 4.58 | 5.2 |  | Kb [2]: inactive; EC50 [5]: 13.6 µM |
| CC(C)(C)OC(=O)N[C@@H](Cc1c[nH]c2ccccc12)C(=O)N[C@@H](CCCNC(=O)OCc1ccccc1)C(=O)N[C@@H](CC(=O)O)C(=O)N[C@@H](Cc1ccccc1)C(N)=O (Boc-W[Orn](Cbz)DF-NH2) | Not Active | 6.25 | 0.34 | 0.57 |  |
| CC(C)(C)OC(=O)N[C@@H](Cc1c[nH]c2ccccc12)C(=O)N[C@@H](CCCN)C(=O)N[C@@H](CC(=O)O)C(=O)N[C@@H](Cc1ccccc1)C(N)=O (Boc-W[Orn]DF-NH2) |  |  | 14 |  | EC50 [7]: 13.8 µM; Kb [8]: inactive |
| CCCC[C@H](NC(=O)[C@H](Cc1ccc(S(=O)(=O)O)cc1)NC(=O)OC(C)(C)C)C(=O)NCC(=O)N[C@@H](Cc1c[nH]c2ccccc12)C(=O)N[C@@H](CCCNC(=O)OC(C)(C)C)C(=O)N[C@@H](CC(=O)O)C(=O)N[C@@H](Cc1ccccc1)C(N)=O (Boc-[Phe(4-SO3H)][Nle]GW[Orn](Boc)DF-NH2) |  | 5.94 | 0.66 | 1.1 | EC50 [9]: Not Active |
| CCCC[C@H](NC(=O)[C@H](Cc1ccc(S(=O)(=O)O)cc1)NC(=O)OC(C)(C)C)C(=O)NCC(=O)N[C@@H](Cc1c[nH]c2ccccc12)C(=O)N[C@@H](CCCNC(=O)OCc1ccccc1)C(=O)N[C@@H](CC(=O)O)C(N)=O (Boc-[Phe(4-SO3H)][Nle]GW[Orn](Cbz)D-NH2) | Not Active |  |  | 0.22 |  |
| CCCC[C@H](NC(=O)[C@H](Cc1ccc(S(=O)(=O)O)cc1)NC(=O)OC(C)(C)C)C(=O)NCC(=O)N[C@@H](Cc1c[nH]c2ccccc12)C(=O)N[C@@H](CCCNC(=O)OCc1ccccc1)C(=O)N[C@@H](CC(=O)O)C(=O)N[C@@H](Cc1ccccc1)C(N)=O (Boc-[Phe(4-SO3H)][Nle]GW[Orn](Cbz)DF-NH2) |  |  |  | 0.49 |  |
| CCCC[C@H](NC(=O)[C@H](Cc1ccc(OS(=O)(=O)O)cc1)NC(=O)OC(C)(C)C)C(=O)NCC(=O)N[C@@H](Cc1c[nH]c2ccccc12)C(=O)N[C@@H](CCCNC(=O)OCc1ccccc1)C(=O)N[C@@H](CC(=O)O)C(N)=O (Boc-[sY][Nle]GW[Orn](Cbz)D-NH2) |  | 6.64 | 0.23 |  |  |
| CCCC[C@H](NC(=O)[C@H](Cc1ccc(OS(=O)(=O)O)cc1)NC(=O)OC(C)(C)C)C(=O)NCC(=O)N[C@@H](Cc1c[nH]c2ccccc12)C(=O)N[C@@H](CCCNC(=O)OCc1ccccc1)C(=O)N[C@@H](CC(=O)O)C(=O)N[C@@H](Cc1ccccc1)C(N)=O (stereo in doubt; 1) |  |  | 0.31 |  | pA2 [10]: 6.32; EC50 [11]: Not Active |
| CCCC[C@H](NC(=O)[C@H](Cc1ccc(OS(=O)(=O)O)cc1)NC(=O)OC(C)(C)C)C(=O)NCC(=O)N[C@@H](Cc1c[nH]c2ccccc12)C(=O)N[C@@H](CCCNC(=O)OCc1ccccc1)C(=O)N[C@@H](CC(=O)O)C(=O)N[C@@H](Cc1ccccc1)C(N)=O (stereo in doubt; 2) |  |  | 0.34 |  | EC50 [12]: 0.022 µM |
